Test results published in patent US7642358B2, “Substituted phenylacetic acids” (Metabolex, Inc., priority 2002, dated 2010).

Tested on: C57BL/6J ob/ob mice
Assay: Anti-diabetic activity (plasma glucose lowering) in C57BL/6J ob/ob mice, oral gavage
Type: in vivo, mouse
Settings: male C57BL/6J ob/ob mice, oral gavage once a day for 1-4 days; for minimal effective dose: Mus musculus, dose effective for plasma glucose lowering, blood taken 6 hours after each dose, read-out: Potency
Procedure: The anti-diabetic activities of the compounds were evaluated in the C57BL/6j ob/ob Mice model.
Male, 7-9 weeks old, C57BL/6J ob/ob mice were purchased from The Jackson Laboratory (Bar Harbor, Me., USA). Animals were housed (4-5 mice/cage) under standard laboratory conditions at 22±3° C. temperature and 50±20% relative humidity, and were maintained on a diet of Purina rodent chow and water ad libitum. Prior to treatment, blood was collected from the tail vein of each animal. Mice that had non-fasting plasma glucose levels between 250 and 500 mg/dl were used. Each treatment group consisted of 8-10 mice that were distributed so that the mean glucose levels were equivalent in each group at the start of the study. Mice were dosed orally by gavage once a day for 1-4 days with vehicle and one or more dose of test compound at a dose ranging from 5 to 125 mg/kg. Compounds were delivered in a liquid formulation containing 5% (v/v) dimethyl sulfoxide (DMSO), 1% (v/v) Tween 80® and 0.9% (w/v) methylcellulose. The gavage volume was 10 ml/kg. Blood samples were taken at 6 hours after the each dose and analyzed for plasma glucose. Food intake and body weight were measured daily. Plasma glucose concentrations were determined colorimetrically using a commercial glucose oxidase method (Sigma Chemical Co, St. Louis, Mo., USA). Significant difference between groups (comparing drug-treated to vehicle-treated) was evaluated using the Student unpaired t-test.
FIG. 6 illustrates the anti-diabetic effects of selected compounds of the present invention. Table 15 provides the relative potency of some of these selected compounds. Compounds that are effective for glucose lowering at the dose of ≧125 mg/kg are assigned a potency of +; compounds that are effective for glucose lowering at a dose of >25 mg/kg but <125 mg/kg are assigned a potency of ++; compounds that are effective for glucose lowering at a dose of ≦25 mg/kg are assigned a potency of +++. For example, a compound at 25 mg/kg that lowered the animal glucose level from 400 mg/dL (vehicle group value) to 250 mg/dL, is assigned the potency of +++.

## O=C(O)C(Oc1ccccc1-c1nc2ccccc2o1)c1ccc(Cl)cc1 (centres unmarked) [Example I-1]
  minimal effective dose: 25 to 125 mg/kg
  Insulin Level compared with vehicle: Lower

## O=C(O)C(Oc1ccccc1-c1nc2ccccc2o1)c1cccc(C(F)(F)F)c1 (centres unmarked) [Example I-3]
  minimal effective dose: ≥ 125 mg/kg
  Insulin Level compared with vehicle: Lower

## O=C(O)C(Oc1ccc(C(F)(F)F)cc1-c1nc2ccccc2o1)c1cccc(C(F)(F)F)c1 (centres unmarked) [Example I-89]
  minimal effective dose: ≤ 25 mg/kg
  Insulin Level compared with vehicle: Lower

## O=C(O)C(Oc1ccc(C(F)(F)F)cc1-c1nc2ccccc2o1)c1ccccc1 (centres unmarked) [Example I-92]
  minimal effective dose: ≤ 25 mg/kg
  Insulin Level compared with vehicle: Lower

## O=C(O)C(Oc1ccc(Cl)cc1-c1nc2ccccc2o1)c1ccc(Cl)cc1 (centres unmarked) [Example I-190]
  minimal effective dose: ≤ 25 mg/kg
  Insulin Level compared with vehicle: Lower

## O=C(O)C(Oc1ccc(Cl)cc1-c1nc2ccccc2o1)c1cccc(C(F)(F)F)c1 (centres unmarked) [Example I-191]
  minimal effective dose: ≤ 25 mg/kg
  Insulin Level compared with vehicle: Lower

## COc1ccc(C(Oc2ccc(Cl)cc2-c2nc3ccccc3o2)C(=O)O)cc1 (centres unmarked) [Example I-193]
  minimal effective dose: ≤ 25 mg/kg
  Insulin Level compared with vehicle: Lower

## O=C(O)C(Oc1ccc(Cl)cc1-c1nc2ccccc2o1)c1cccc(Cl)c1 (centres unmarked) [Example I-194]
  minimal effective dose: ≤ 25 mg/kg
  Insulin Level compared with vehicle: Lower

## O=C(O)[C@@H](Oc1ccc(C(F)(F)F)cc1-c1nc2ccccc2o1)c1ccccc1 [Example I-369]
  minimal effective dose: ≤ 25 mg/kg
  Insulin Level compared with vehicle: Lower

## CC(Oc1ccc(C(F)(F)F)cc1-c1nc2ccccc2o1)(C(=O)O)c1ccccc1 (centres unmarked) [Ia-365]
  minimal effective dose: ≤ 25 mg/kg
  Insulin Level compared with vehicle: Lower

## CC(Oc1ccc(C(F)(F)F)cc1-c1nc2ccccc2o1)(C(=O)O)c1ccccc1 (centres unmarked) [Ia-366]
  Insulin Level compared with vehicle: Lower

## Cc1ccc(OC(C(=O)O)c2cccc(C(F)(F)F)c2)c(-n2nc3ccccc3n2)c1 (centres unmarked) [XI-2]
  minimal effective dose: ≤ 25 mg/kg
  Insulin Level compared with vehicle: Lower

## Cc1ccc(OC(C(=O)O)c2ccc(C(F)(F)F)cc2)c(-n2nc3ccccc3n2)c1 (centres unmarked) [XI-6]
  minimal effective dose: ≤ 25 mg/kg
  Insulin Level compared with vehicle: Lower

## O=C(O)C(Oc1ccc(Cl)cc1-n1nc2ccccc2n1)c1ccc(C(F)(F)F)cc1 (centres unmarked) [XI-24]
  minimal effective dose: ≤ 25 mg/kg
  Insulin Level compared with vehicle: Lower

## O=C(O)C(Oc1ccc(C(F)(F)F)cc1-n1nc2ccccc2n1)c1cccc(C(F)(F)F)c1 (centres unmarked) [XI-47]
  minimal effective dose: ≤ 25 mg/kg
  Insulin Level compared with vehicle: Lower

## O=C(O)C(Oc1ccc(C(F)(F)F)cc1-n1nc2ccccc2n1)c1ccc(C(F)(F)F)cc1 (centres unmarked) [XI-51]
  minimal effective dose: ≤ 25 mg/kg
  Insulin Level compared with vehicle: Lower

## Cc1ccc(OC(C)(C(=O)O)c2ccc(Cl)cc2)c(-n2nc3ccccc3n2)c1 (centres unmarked) [XIa-5]
  minimal effective dose: ≤ 25 mg/kg
  Insulin Level compared with vehicle: Lower

## CC(Oc1ccc(C(F)(F)F)cc1-n1nc2ccccc2n1)(C(=O)O)c1ccc(C(F)(F)F)cc1 (centres unmarked) [XIa-51]
  minimal effective dose: ≤ 25 mg/kg
  Insulin Level compared with vehicle: Lower
